Source: US8202893B2, “Cannabinergic lipid ligands” (University of Connecticut, priority 2004, dated 2012)
Like-named read-outs stand apart in the source and are kept apart here.

Experiments:
[1] = target: T1, FAAH (fatty acid amide hydrolase) (Rattus norvegicus, UniProt P97612); test: FAAH screening: inhibition of anandamide metabolism to arachidonic acid; type: biochemical; details: 25 nmoles compound with 25 nmoles AEA, 75 μg enzyme, 250 μL, 15 min
T1 construct: Anandamide Amidase Activity in Rat Brain Microsomes; from tissue; host or cells: rat brain microsomes (by the cited procedure)
T1 sequence (P97612 1-579): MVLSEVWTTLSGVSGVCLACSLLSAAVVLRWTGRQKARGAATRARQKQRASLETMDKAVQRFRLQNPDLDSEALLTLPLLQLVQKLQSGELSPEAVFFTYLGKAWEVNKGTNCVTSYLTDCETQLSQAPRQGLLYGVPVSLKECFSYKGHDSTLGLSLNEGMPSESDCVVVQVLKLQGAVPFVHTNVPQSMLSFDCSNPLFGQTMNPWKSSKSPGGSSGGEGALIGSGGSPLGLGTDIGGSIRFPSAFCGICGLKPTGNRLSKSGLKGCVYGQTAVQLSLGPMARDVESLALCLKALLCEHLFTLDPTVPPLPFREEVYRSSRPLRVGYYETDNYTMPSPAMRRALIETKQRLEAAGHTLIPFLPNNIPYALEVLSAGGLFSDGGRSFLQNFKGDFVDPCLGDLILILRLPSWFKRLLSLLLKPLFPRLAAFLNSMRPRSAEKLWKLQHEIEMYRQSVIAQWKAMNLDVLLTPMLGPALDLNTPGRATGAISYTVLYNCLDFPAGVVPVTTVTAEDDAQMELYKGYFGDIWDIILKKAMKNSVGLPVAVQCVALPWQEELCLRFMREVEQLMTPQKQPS
Procedure: The FAAH (fatty acid amide hydrolase) enzyme preparation was obtained according to the procedure of Lang and Makriyannis et al High Performance Liquid Chromatographic Determination of Anandamide Amidase Activity in Rat Brain Microsomes, Analytical Biochemistry (238): 40-45, 1996.
All compound solutions were made to a concentration of 10 mM in DMSO. Three tests were performed on each compound: hydrolysis, to determine the stability of the compound in assay conditions without the enzyme present; metabolism, to determine the stability of the compound with the enzyme present; and inhibition of anandamide (native substrate) metabolism to arachidonic acid.
(§1) Again the reaction mixture was treated in the same manner as described above and the concentrations of AEA and AA were calculated using external standards. Percent inhibition was calculated using the following equation: % Inhib.=(AA15-AA0)i/(AA15-AA0)s where (AA15-AA0)c is the amount of arachidonic acid formed over 15 minutes from AEA with the inhibitor present and (AA15-AA0)s is the amount of arachidonic acid formed over 15 minutes from AEA when the inhibitor is not present. […] The reaction mixtures were treated as described above and the amount of AA formed was calculated. The software package GraphPad Prism was utilized to calculate IC50 and Ki. HPLC Conditions:
Chromatographic separation was achieved using an Ultrasphere ODS Pre-column (4.6×45 mm) from Beckman. Hardware consisted of a Waters Millennium HPLC system with a 20 μL injection loop. The mobile phase consisted of 8.5% o-phosphoric acid:acetonitrile (3:7), run isocratically at a rate of 1 mL/min and detection at 204 nm. The total run time was 8 minutes with AEA eluting at 2.2 minutes and AA at 6.0 minutes.

CB2 receptor = target: T2, CB2 receptor (Mus musculus, UniProt P47936); test: CB2 receptor binding, [3H]CP-55,940 displacement; details: mouse spleen membranes
T2 construct: membranes were prepared from frozen mouse spleen; from tissue; host or cells: mouse spleen
T2 sequence (P47936 whole entry): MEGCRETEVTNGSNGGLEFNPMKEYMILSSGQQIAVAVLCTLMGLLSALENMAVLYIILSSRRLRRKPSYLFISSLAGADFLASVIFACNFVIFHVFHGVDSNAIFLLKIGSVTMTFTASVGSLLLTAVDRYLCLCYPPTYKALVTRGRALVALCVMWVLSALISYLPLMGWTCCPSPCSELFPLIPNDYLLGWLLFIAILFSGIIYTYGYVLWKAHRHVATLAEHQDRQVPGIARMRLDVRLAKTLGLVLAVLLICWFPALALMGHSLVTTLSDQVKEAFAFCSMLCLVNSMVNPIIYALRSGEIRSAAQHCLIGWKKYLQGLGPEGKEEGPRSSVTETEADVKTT
Procedure: (§2) The treated membranes were subsequently used in the binding assay described below. Approximately 30 μg of membranes were incubated in silanized 96-well microtiter plate with TME containing 0.1% essentially fatty acid-free bovine serum albumin (BSA), 0.8 nM [^3H] CP-55,940, and various concentrations of test materials in a final volume of 200 μL. The assays were incubated for 1 hour at 30° C. and then immediately filtered using Packard Filtermate 196 harvester and Whatman GF/C filterplates and washed with wash buffer (TME) containing 0.5% BSA. Radioactivity was detected using MicroScint 20 scintillation cocktail added directly to the dried filterplates, and the filterplates were counted using a Packard Instruments Top-Count. Nonspecific binding was assessed using 100 nM CP-55,940. Data collected from three independent experiments performed with duplicate determinations was normalized between 100% and 0% specific binding for [^3H] CP-55,940, determined using buffer and 100 nM CP-55,940. The normalized data was analyzed using a 4-parameter nonlinear logistic equation to yield IC50 values.
For the CB2 receptor binding studies, membranes were prepared from frozen mouse spleen essentially according to the procedure of P. R. Dodd et al, A Rapid Method for Preparing Synaptosomes: Comparison with Alternative Procedures, Brain Res., 226, 107-118 (1981) which is incorporated by reference herein. Silanized centrifuge tubes were used throughout to minimize receptor loss due to adsorption. The CB2 binding assay was conducted in the same manner as for the CB1 binding assay. The binding affinities (Ki) were also expressed in nanomoles (nM).

CB1 cannabinoid receptor = target: T3, CB1 cannabinoid receptor (Rattus norvegicus, UniProt P20272); test: CB1 receptor binding, [3H]CP-55,940 displacement; details: rat forebrain membranes
T3 construct: membranes were prepared from rat forebrain membranes; from tissue; host or cells: rat forebrain
T3 sequence (P20272 whole entry): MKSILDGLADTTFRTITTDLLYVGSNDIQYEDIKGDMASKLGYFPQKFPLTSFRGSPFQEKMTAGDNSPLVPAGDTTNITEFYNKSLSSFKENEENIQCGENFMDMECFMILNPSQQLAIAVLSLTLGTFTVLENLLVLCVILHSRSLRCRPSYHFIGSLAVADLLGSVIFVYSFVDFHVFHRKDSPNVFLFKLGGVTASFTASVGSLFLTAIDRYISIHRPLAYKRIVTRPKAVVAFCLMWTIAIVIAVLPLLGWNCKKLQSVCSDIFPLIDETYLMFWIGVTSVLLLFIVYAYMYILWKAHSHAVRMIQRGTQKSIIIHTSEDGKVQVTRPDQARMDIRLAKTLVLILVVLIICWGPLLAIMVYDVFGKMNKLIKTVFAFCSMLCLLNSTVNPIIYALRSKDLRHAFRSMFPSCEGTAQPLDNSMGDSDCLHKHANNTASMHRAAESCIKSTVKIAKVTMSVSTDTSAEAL
Procedure: Some inventive analogs were tested for CB2 receptor binding affinity and for CB1 receptor affinity (to determine selectivity). […] The lower the Ki value, the higher the binding affinity. […] For the CB1 receptor binding studies, membranes were prepared from rat forebrain membranes according to the procedure of P. R. Dodd et al, A Rapid Method for Preparing Synaptosomes: Comparison with Alternative Procedures, Brain Res., 107-118 (1981). The binding of the novel analogues to the CB1 cannabinoid receptor was assessed as described in W. A. Devane et al, Determination and Characterization of a Cannabinoid Receptor in a Rat Brain, Mol. Pharmacol., 34, 605-613 (1988) and A. Charalambous et al, 5′-azido Δ^8-THC: A Novel Photoaffinity Label for the Cannabinoid Receptor, J. Med. Chem., 35, 3076-3079 (1992) with the following changes. The above articles are incorporated by reference herein.
Membranes, previously frozen at −80° C., were thawed on ice. To the stirred suspension was added three volumes of TME (25 mM Tris-HCl buffer, 5 mM MgCl2 and 1 mM EDTA) at a pH 7.4. The suspension was incubated at 4° C. for 30 min. At the end of the incubation, the membranes were pelleted and washed three times with TME.
as §2

anandamide transporter = test: [3H]Anandamide transporter competition assay; type: cell-based; details: human CCF-STG1 astrocytoma cells, 10 nM [3H]anandamide
Procedure: Human CCF-STG1 astrocytoma cells (American Type Culture collection) were grown in RPMI1640 culture medium containing 2 mM L-glutamine, 4.5 g/L glucose, 10 mM HEPES, and 1.0 mM sodium pyruvate, 10% FBS, cultures at 37° C. with 5% CO2. For standard competition assays, confluent cells grown in 24-well plates were rinsed and preincubated for 10 min at 37° C. in assay buffer (Hank's Balanced Salt Solution containing 0.1% DMSO, 10 mM HEPES) plus test compounds (at their final concentrations of 0.01-100 μM). After having discarded the preincubation media, the cells were incubated for 4 min in 0.2 ml assay buffer containing 10 nM [^3H] anandamide (137.6 Ci/mmol, New England Nuclear) plus test compounds. Reactions were stopped by removing the incubation media and rinsing the cells three times with 0.5 ml of ice-cold HBSS buffer containing 0.1% fatty acid-free Bovine Serum Albumin (sigma). Radioactive material in Triton X-100 cell extracts was measured by liquid scintillation counting. A minimum of three independent experiments conducted in six replicates was used to define the concentration needed to produce half-maximal inhibition (IC50) for each compound. IC50 values were obtained by nonlinear regression fitting of the data, using the PRIZM software package. Data are expressed as mean±SEM.

Mag-lipase = target: T4, Mag-lipase (Rattus norvegicus, UniProt Q8R431); test: Inhibition of MAG-lipase: 2-AG metabolism to arachidonic acid; type: biochemical; details: 30 nmoles compound with 30 nmoles 2-AG, 30 μg enzyme, 300 μL, 20 min
T4 construct: supernatant from final spin in the anandamide amidase preparation; from tissue; host or cells: supernatant (soluble fraction) of the anandamide amidase preparation, rat brain by the cited procedure
T4 sequence (Q8R431 1-303): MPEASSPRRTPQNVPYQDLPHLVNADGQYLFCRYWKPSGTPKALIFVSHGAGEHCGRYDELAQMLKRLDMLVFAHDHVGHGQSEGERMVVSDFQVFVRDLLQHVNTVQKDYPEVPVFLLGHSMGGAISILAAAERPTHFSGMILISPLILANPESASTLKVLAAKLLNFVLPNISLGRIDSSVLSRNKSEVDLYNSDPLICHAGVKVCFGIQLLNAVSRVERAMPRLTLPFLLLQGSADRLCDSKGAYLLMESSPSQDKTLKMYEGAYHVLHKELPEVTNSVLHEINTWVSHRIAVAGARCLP
Procedure: All compound solutions were made to a concentration of 10 mM in DMSO. Three tests were performed on each compound: hydrolysis, to determine the stability of the compound in assay conditions without the enzyme present; metabolism, to determine the stability of the compound with the enzyme present; and inhibition of 2-Arachidonoyl glycerol (native substrate) metabolism to arachidonic acid.
as §1, with “The inhibition of 2-AG metabolism was measured by mixing 30 nmoles of the compound with 30 nmoles 2-AG, and 30 μg enzyme preparation in TME buffer (final volume of 300 μL). Again” for “Again”, “2-AG” for “AEA”, “Inhib.=(AA20-AA0)i/(AA20-AA0)s” for “Inhib.=(AA15-AA0)i/(AA15-AA0)s”, “(AA20-AA0)i” for “(AA15-AA0)c”, “20” for “15”, “(AA20-AA0)s” for “(AA15-AA0)s”
Chromatographic separation was achieved using an Ultrasphere ODS Pre-column (4.6×45 mm) from Beckman. Hardware consisted of a Waters Millennium HPLC system with a 20 μL injection loop. The mobile phase consisted of 8.5% o-phosphoric acid:acetonitrile (3:7), run isocratically at a rate of 1 mL/min and detection at 204 nm. The total run time was 8 minutes with 2-AG eluting at 3.0 minutes and AA at 6.0 minutes.

[2] = with PMSF (second value of cell), read-out: Ki CB1 (nM) (o/w PMSFQ)
[3] = without PMSF (first value of cell), read-out: Ki CB1 (nM) (o/w PMSFQ)
[4] = with PMSF (second value of cell), read-out: Ki CB1 (nM) (o/w PMSF)
[5] = without PMSF (first value of cell), read-out: Ki CB1 (nM) (o/w PMSF)

[N-]=[N+]=NCCCCC/C=C\C/C=C\C/C=C\C/C=C\CCCC(=O)NC1=NCCS1 [Compound A14]
FAAH % Inhibition [1]: 48%
Ki (CB2 receptor): 243 nM
Ki (CB1 cannabinoid receptor; [2]): 144 nM
Ki (CB1 cannabinoid receptor; [3]): 428 nM
IC50 (anandamide transporter; read-out: IC50 AT inhibition): 1200 nM

O=C(CCC/C=C\C/C=C\C/C=C\C/C=C\CCCCCO)NC1CC1 [Compound A17]
FAAH % Inhibition [1]: 61%
Ki (CB2 receptor): 38.7 nM
Ki (CB1 cannabinoid receptor; [2]): 3.9 nM
Ki (CB1 cannabinoid receptor; [3]): 209 nM
IC50 (anandamide transporter; read-out: IC50 AT inhibition): 35300 nM

N#CCCCCC/C=C\C/C=C\C/C=C\C/C=C\CCCC(=O)NC1CC1 [Compound A19]
FAAH % Inhibition [1]: 57%
Ki (CB2 receptor): 5.7 nM
Ki (CB1 cannabinoid receptor; [2]): 0.04 nM
Ki (CB1 cannabinoid receptor; [3]): 32.9 nM
IC50 (anandamide transporter; read-out: IC50 AT inhibition): 23500 nM

O=C(CCC/C=C\C/C=C\C/C=C\C/C=C\CCCCCCl)NC1CC1 [Compound A20]
FAAH % Inhibition [1]: 67%
Ki (CB2 receptor): 28.3 nM
Ki (CB1 cannabinoid receptor; [2]): 0.17 nM
Ki (CB1 cannabinoid receptor; [3]): 57.9 nM
IC50 (anandamide transporter; read-out: IC50 AT inhibition): 4100 nM

CCCCC/C=C\C/C=C\C/C=C\C/C=C\CCCCOC(=O)N[C@H](C)CO [Compound B1]
FAAH % Inhibition [1]: 14.7%
Ki (CB2 receptor): 5070 nM
Ki (CB1 cannabinoid receptor; [4]): 1440 nM
Ki (CB1 cannabinoid receptor; [5]): 1330 nM
IC50 (anandamide transporter; read-out: IC50 (AT inhib.)): 7100 nM

CCCCC/C=C\C/C=C\C/C=C\C/C=C\CCCCOC(=O)N[C@@H](C)CO [Compound B2]
FAAH % Inhibition [1]: 14.3%
Ki (CB2 receptor): 2150 nM
Ki (CB1 cannabinoid receptor; [4]): 996 nM
Ki (CB1 cannabinoid receptor; [5]): 1100 nM
IC50 (anandamide transporter; read-out: IC50 (AT inhib.)): 6400 nM

CCCCCC=CCC=CCC=CCC=CCCCCOC(=O)NCC(C)O (centres unmarked) [Compound B4]
FAAH % Inhibition [1]: 7%
Ki (CB2 receptor): 254 nM
Ki (CB1 cannabinoid receptor; [4]): 320 nM
Ki (CB1 cannabinoid receptor; [5]): 338 nM
IC50 (anandamide transporter; read-out: IC50 (AT inhib.)): 400 nM

CCCCC/C=C\C/C=C\C/C=C\C/C=C\CCCCOC(=O)NC(C)C [Compound B5]
FAAH % Inhibition [1]: 4.5%
Ki (CB2 receptor): 543 nM
Ki (CB1 cannabinoid receptor; [4]): 343 nM
Ki (CB1 cannabinoid receptor; [5]): 510 nM
IC50 (anandamide transporter; read-out: IC50 (AT inhib.)): 21900 nM

CCCCC/C=C\C/C=C\C/C=C\C/C=C\CCCCOC(=O)Nc1ccc(O)cc1 [Compound B9]
FAAH % Inhibition [1]: 27.3%
Ki (CB2 receptor): 533 nM
Ki (CB1 cannabinoid receptor; [4]): 3300 nM
Ki (CB1 cannabinoid receptor; [5]): 5390 nM
IC50 (anandamide transporter; read-out: IC50 (AT inhib.)): 6600 nM

CCCCC/C=C\C/C=C\C/C=C\C/C=C\CCCCOC(=O)NC1=NCCS1 [Compound B10]
Mag-Lipase % Inhibition (Mag-lipase): 34.0%
IC50 (anandamide transporter; read-out: IC50 (AT inhib.)): 8600 nM
